{
  "source": "patent US9180164B2",
  "about": "“Compounds and methods of modulating angiogenesis” (THE CLEVELAND CLINIC FOUNDATION, priority 2011, dated 2015)",
  "key": {"VEGFR-2": {"target": "T1, VEGFR-2 (Mus musculus, UniProt P35918)", "T1 construct": "endogenous in cells; host or cells: primary mouse lung endothelial cells (WT and DiYF mice)", "T1 sequence (P35918 20-1345)": "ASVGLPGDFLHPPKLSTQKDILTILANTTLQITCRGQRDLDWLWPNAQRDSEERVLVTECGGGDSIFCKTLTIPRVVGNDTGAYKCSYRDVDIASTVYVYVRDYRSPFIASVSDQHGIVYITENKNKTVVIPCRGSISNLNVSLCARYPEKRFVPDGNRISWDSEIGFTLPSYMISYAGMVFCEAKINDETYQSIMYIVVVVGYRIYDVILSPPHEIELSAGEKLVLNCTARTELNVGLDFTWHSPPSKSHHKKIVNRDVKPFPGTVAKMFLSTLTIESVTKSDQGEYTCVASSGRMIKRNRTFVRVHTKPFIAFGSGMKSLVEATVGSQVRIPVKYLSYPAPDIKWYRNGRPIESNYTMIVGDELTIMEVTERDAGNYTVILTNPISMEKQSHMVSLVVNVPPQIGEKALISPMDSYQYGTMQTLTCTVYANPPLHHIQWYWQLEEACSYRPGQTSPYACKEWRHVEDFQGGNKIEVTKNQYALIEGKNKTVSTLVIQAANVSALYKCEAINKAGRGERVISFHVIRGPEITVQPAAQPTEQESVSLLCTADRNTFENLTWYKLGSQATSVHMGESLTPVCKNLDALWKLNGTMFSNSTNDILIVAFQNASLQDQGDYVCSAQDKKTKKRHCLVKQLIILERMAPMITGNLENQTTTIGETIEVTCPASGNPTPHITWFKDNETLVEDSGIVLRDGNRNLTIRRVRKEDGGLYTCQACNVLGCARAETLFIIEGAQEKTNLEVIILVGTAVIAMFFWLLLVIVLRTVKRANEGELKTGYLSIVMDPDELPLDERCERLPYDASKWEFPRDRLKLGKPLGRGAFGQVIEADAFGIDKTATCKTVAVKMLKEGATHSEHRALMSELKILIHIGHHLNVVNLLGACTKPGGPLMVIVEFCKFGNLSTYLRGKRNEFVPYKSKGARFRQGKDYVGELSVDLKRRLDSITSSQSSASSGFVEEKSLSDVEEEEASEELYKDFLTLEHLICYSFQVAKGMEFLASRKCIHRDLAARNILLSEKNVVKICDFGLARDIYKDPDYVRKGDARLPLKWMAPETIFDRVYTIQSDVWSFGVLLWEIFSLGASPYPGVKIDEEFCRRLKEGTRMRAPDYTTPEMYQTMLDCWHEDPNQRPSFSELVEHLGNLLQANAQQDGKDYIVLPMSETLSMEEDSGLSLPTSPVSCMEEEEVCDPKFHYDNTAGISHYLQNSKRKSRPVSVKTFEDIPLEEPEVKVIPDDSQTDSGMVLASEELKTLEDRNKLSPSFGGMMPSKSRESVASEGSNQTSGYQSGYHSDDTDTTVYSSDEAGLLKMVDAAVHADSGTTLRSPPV", "assay": "VEGFR-2 phosphorylation time course in mouse lung endothelial cells", "format": "cell-based", "conditions": "20 ng/ml VEGF", "protocol": "Serum starved wild type and DiYF endothelial cells were also treated with 20 ng/ml VEGF for 0-60 mins. Cell lysates were analyzed by Western blot using anti-integrin β3 [pY^747], anti-integrin [pY^759], anti-p-VEGFR-2, anti-VEGFR-2, anti-p-ERK1/2, anti-ERK1/2, anti-p-Akt, anti-Akt, anti-p-P38MAPK and anti-MAPK antibody. The wild type and DiYF endothelial cells were lysed and equal proteins from total cell lysates were subjected SDS-PAGS and analyzed by western blot using anti-VEGFR-2 and anti-CD-31 antibody."}, "[1]": {"tested_on": "mouse lung endothelial cells", "conditions": "WT EC, vitronectin", "protocol": "Transwell tissue culture inserts were coated with various integrin ligands for 24 h at 4° C. Both WT and DiYF lung endothelial cells were trypsinized and 1×10^5 cells were added into each well. The lower chamber contained varying concentrations of VEGF-A165 (0-20 ng/ml). Cells were allowed to migrate for 12 h and fixed with 3.7% formaldehyde/PBS for 15 min and stained with 0.5% crystal violet. The non-migrated cells adhered to the top surface were removed and three random 10× fields were photographed using Leica inverted phase contrast microscope."}, "[2]": {"tested_on": "HUVECs (Human Umbilical vascular endothelial cells)", "assay": "Tube formation assay on Matrigel with inhibitory peptide", "format": "cell-based", "conditions": "8 h", "protocol": "The effect of αvβ3/VEGFR2 complex inhibiting peptides in accordance with the present invention on angiogenic function was assessed by tube formation assay on the basement membrane matrix preparation. […] Cells were washed twice with sterile PBS and seeded on Matrigel-coated plates in combination of presence/absence of VEGF and inhibitory peptide. Cells were further incubated at 37° C. for 8 h."}, "αvβ3 integrin": {"tested_on": "αvβ3 integrin", "assay": "WOW-1 binding assay, HUVECs", "format": "cell-based, Human", "conditions": "FACS analysis", "protocol": "Semiconfluent HUVECs were serum starved for 4 h and further stimulated with 20 ng/mL VEGF-A165 or VEGFDΔNΔC. WOW-1 Fab was added to a final concentration of 30 μg/mL, followed by addition of FITC-conjugated goat anti-mouse IgG at 10 μg/mL. After 30 min cells were fixed with 3.7% formaldehyde in PBS for 15 min, washed twice with PBS, and fluorescence-activated cell sorting (FACS) was performed using a FACS Calibur (Becton Dickinson, San Jose, Calif.) and data were analyzed using CellQuest software."}},
  "note": "Like-named read-outs stand apart in the source and are kept apart here.",
  "data": [
    {"substance": "VEGF", "values": [
      {"measurement": "maximum increase in VEGFR-2 phosphorylation over control", "setting": "VEGFR-2; DiYF EC", "value": 2.5, "unit": "fold"},
      {"measurement": "maximum increase in VEGFR-2 phosphorylation over control", "setting": "VEGFR-2; WT EC", "value": 6, "unit": "fold"},
      {"measurement": "increase of migration compared to untreated EC", "setting": "[1]; 5 ng/ml", "value": 1.5, "unit": "fold"},
      {"measurement": "increase of migration compared to untreated EC", "setting": "[1]; 10 ng/ml", "value": 2.5, "unit": "fold"},
      {"measurement": "increase of migration compared to untreated EC", "setting": "[1]; 20 ng/ml", "value": 2.9, "unit": "fold"},
      {"measurement": "endothelial cell tube formation induced (length of tubes)", "setting": "[2]", "value": "at least 450 μm/mm^2"},
      {"measurement": "increase of WOW-1 binding to EC compared to resting cells", "setting": "αvβ3 integrin", "value": 6, "unit": "fold"}
    ]}
  ]
}
